The subject of this assay is HepG2 cells. Put plainly: Transduction enhancer Cyclosporin H in vitro testing (eGFP positive cells by flow cytometry). The class given is cell-based. The procedure:
Due to the important relevance of the target tissue origin, HepG2 cells, a hepatic cell line, were used.
Three days after transduction, the percentage of eGFP positive cells was analysed by Flow Cytometry. All conditions were performed as triple experimental replicates.
A general note: In flow cytometry, cells or beads pass a laser one at a time.

This note sets out measurements from patent EP4083217A1, “IN VIVO […] THERAPY FOR THE TREATMENT OF PRIMARY HYP[…] 1” (Centro de Investigaciones Energéticas, Medioambientales y …, priority 2021, dated 2022).

Consider `C/C=C/C[C@@H](C)[C@@H](O)[C@H]1C(=O)N[C@@H](CC)C(=O)N(C)CC(=O)N(C)[C@@H](CC(C)C)C(=O)N[C@@H](C(C)C)C(=O)N(C)[C@@H](CC(C)C)C(=O)N[C@@H](C)C(=O)N[C@H](C)C(=O)N(C)[C@@H](CC(C)C)C(=O)N(C)[C@@H](CC(C)C)C(=O)N(C)[C@H](C(C)C)C(=O)N1C` [CsH, Cyclosporin H], for which the “transduction percentage (eGFP positive cells)” value runs as follows: (HepG2, LV.ET.eGFP.142-3pT MOI 0.3, 4 µM CsH during transduction) 37.67%; (HepG2, LV.ET.eGFP.142-3pT MOI 0.3, 16 µM CsH during transduction) 51.5%. The “percentage of transduced cells” value (HepG2, LV.ET.eGFP.142-3pT MOI 0.3, 16 µM CsH 16 hours pre-treatment and during transduction) is reported as 31.03%.
